Experimental data: ChEMBL document CHEMBL1140858, “Ceramicines B-D, new antiplasmodial limonoids from Chisocheton ceramicus” (Bioorg Med Chem, 2009)
In brackets after ≈: the same amount, converted by molar mass.

Key:
[1] = system: Plasmodium falciparum; assay: Antiplasmodial activity against Plasmodium falciparum 3D7 by Giemsa staining; type: functional, organism-based
[2] = system: P388; assay: Cytotoxicity against mouse P388 cells by MTT assay; type: cell-based

IC50 [1] [µg/mL]	Structure (SMILES)	IC50 [2] [µg/mL]
44.2 (≈ 100 µM)	CC(=O)O[C@@H]1[C@H]2[C@@H](O)C=CC(=O)[C@]2(C)[C@H]2CC[C@]3(C)C(=CC[C@H]3c3ccoc3)[C@]2(C)[C@@H]1O [CERAMICINES A]	
2.15 (≈ 5.06 µM)	C[C@]12C3=CC[C@@H](C4=CCOC4=O)[C@]3(C)CC[C@@H]1[C@@]1(C)C(=O)C=C[C@@]3(C)CO[C@@H]([C@H]2O)[C@H]13 [CERAMICINES D]	27 (≈ 63.6 µM)
2.38 (≈ 4.83 µM)	C=C(C)C(=O)O[C@H]1C[C@H]2[C@](C)(C3=CC[C@@H](c4ccoc4)[C@@]31C)[C@H](O)[C@@H]1OC[C@]3(C)C=CC(=O)[C@@]2(C)[C@@H]13 [CERAMICINES C]	5.5 (≈ 11.2 µM)

Structure (SMILES)	IC50 [1] [µg/mL]	IC50 [2] [µg/mL]
C[C@]12C3=CC[C@@H](c4ccoc4)[C@]3(C)CC[C@@H]1[C@@]1(C)C(=O)C=C[C@@]3(C)CO[C@@H]([C@H]2O)[C@H]13 [CERAMICINES B]	0.23 (≈ 0.563 µM)	15 (≈ 36.7 µM)
